{
  "source": "paper PMC12655637",
  "about": "“Design, Synthesis, and Mechanistic Study of Novel Ciprofloxacin/Thiazole Chalcone Hybrids as Potential Anticancer Agents” (Pharmaceuticals, 2025)",
  "assay_in_all_cases": "NCI-60 screening, one-dose (10 µM) and five-dose, SRB",
  "key": {"COLO 205": {"test_system": "COLO 205", "format": "cell-based, human", "conditions": "five-dose; COLO 205"}, "SF-539": {"test_system": "SF-539", "format": "cell-based, human", "conditions": "five-dose, SF-539"}, "HL-60(TB)": {"test_system": "HL-60(TB)", "format": "cell-based, human"}, "NCI/ADR-RES": {"test_system": "NCI/ADR-RES", "format": "cell-based, human"}, "IGROV1": {"test_system": "IGROV1", "format": "cell-based, human"}, "PC-3": {"test_system": "PC-3", "format": "cell-based, human"}, "SK-MEL-2": {"test_system": "SK-MEL-2", "format": "cell-based, human"}, "HCT-15": {"test_system": "HCT-15", "format": "cell-based, human"}, "OVCAR-8": {"test_system": "OVCAR-8", "format": "cell-based, human"}, "NCI-H522": {"test_system": "NCI-H522", "format": "cell-based, human"}, "HS 578T": {"test_system": "HS 578T", "format": "cell-based, human"}, "SNB-19": {"test_system": "SNB-19", "format": "cell-based"}, "K-562": {"test_system": "K-562", "format": "cell-based, human"}, "CCRF-CEM": {"test_system": "CCRF-CEM", "format": "cell-based, human"}, "MALME-3M": {"test_system": "MALME-3M", "format": "cell-based, human"}, "[1]": {"conditions": "Homo sapiens, five-dose, read-out: LC50 (the source's name)"}, "[2]": {"conditions": "Homo sapiens, IGROV-1, five-dose, IGROV1"}, "[3]": {"conditions": "Homo sapiens, five-dose, SK-MEL-2"}, "[4]": {"conditions": "Homo sapiens, five-dose, HCT-15"}, "[5]": {"conditions": "Homo sapiens, five-dose, OVCAR-8"}, "[6]": {"conditions": "Homo sapiens, five-dose, NCI-H522"}, "[7]": {"conditions": "Homo sapiens, five-dose, SNB-19"}, "[8]": {"conditions": "Homo sapiens, K562, five-dose, K-562"}},
  "data": [
    {"compound": "Cc1nc(SCC(=O)N2CCN(c3cc4c(cc3F)c(=O)c(C(=O)O)cn4C3CC3)CC2)sc1C(=O)/C=C/c1cccc(F)c1", "note": "[Compound 4d, (E)-1-Cyclopropyl-6-fluoro-7-(4-(2-((5-(3-(3-fluorophenyl)acryloyl)-4-methylthiazol-2-yl)thio)acetyl)piperazin-1-yl)-4-oxo-1,4-dihydroquinoline-3-carboxylic Acid]", "values": [
      {"measurement": "TGI", "setting": "COLO 205", "result": 19.95, "unit": "µM"},
      {"measurement": "GI50", "setting": "SF-539; Homo sapiens", "result": 2, "unit": "µM"},
      {"measurement": "IC50", "setting": "SF-539; Homo sapiens", "result": 4.1, "unit": "µM"},
      {"measurement": "CC50", "setting": "SF-539; Homo sapiens, read-out: LC50 (the source's name)", "result": "> 100", "unit": "µM"},
      {"measurement": "TGI", "setting": "SF-539", "result": 100.0, "unit": "µM"},
      {"measurement": "activity at 10 µM", "setting": "HL-60(TB); Homo sapiens, HL-60, 10 μM, HL-60(TB), Leukemia, read-out: Growth percentage", "result": -99.8, "unit": "%"},
      {"measurement": "IC50", "setting": "HL-60(TB); Homo sapiens, HL-60, five-dose, HL-60(TB)", "result": 2.9, "unit": "µM"},
      {"measurement": "IC50", "setting": "HL-60(TB); Homo sapiens, HL-60, leukemia HL-60", "result": 3.7, "unit": "µM"},
      {"measurement": "GI50", "setting": "HL-60(TB); Homo sapiens, five-dose, HL-60(TB)", "result": 1.78, "unit": "µM"},
      {"measurement": "CC50", "setting": "HL-60(TB); Homo sapiens, five-dose, HL-60(TB), read-out: LC50 (the source's name)", "result": 11, "unit": "µM"},
      {"measurement": "TGI", "setting": "HL-60(TB); five-dose, HL-60(TB)", "result": 3.8, "unit": "µM"},
      {"measurement": "activity at 10 µM", "setting": "NCI/ADR-RES; Homo sapiens, 10 μM, Ovarian Cancer, read-out: Growth percentage", "result": 110, "unit": "%"},
      {"measurement": "GI50", "setting": "NCI/ADR-RES; Homo sapiens, five-dose", "result": "> 100", "unit": "µM"},
      {"measurement": "IC50", "setting": "NCI/ADR-RES; Homo sapiens, five-dose", "result": "> 100", "unit": "µM"},
      {"measurement": "CC50", "setting": "NCI/ADR-RES; [1]", "result": "> 100", "unit": "µM"},
      {"measurement": "TGI", "setting": "NCI/ADR-RES; five-dose", "result": 100.0, "unit": "µM"},
      {"measurement": "Growth percentage", "setting": "IGROV1; 10 μM, IGROV1, Ovarian Cancer", "result": 44.6, "unit": "%"},
      {"measurement": "GI50", "setting": "IGROV1; [2]", "result": "> 100", "unit": "µM"},
      {"measurement": "IC50", "setting": "IGROV1; [2]", "result": "> 100", "unit": "µM"},
      {"measurement": "CC50", "setting": "IGROV1; Homo sapiens, IGROV-1, five-dose, IGROV1, read-out: LC50 (the source's name)", "result": "> 100", "unit": "µM"},
      {"measurement": "TGI", "setting": "IGROV1; five-dose, IGROV1", "result": 100.0, "unit": "µM"},
      {"measurement": "activity at 10 µM", "setting": "PC-3; Homo sapiens, 10 μM, PC-3, Prostate Cancer, read-out: Growth percentage", "result": 53.4, "unit": "%"},
      {"measurement": "GI50", "setting": "PC-3; Homo sapiens, five-dose, PC-3", "result": 51.3, "unit": "µM"},
      {"measurement": "IC50", "setting": "PC-3; Homo sapiens, five-dose, PC-3", "result": "> 100", "unit": "µM"},
      {"measurement": "CC50", "setting": "PC-3; Homo sapiens, five-dose, PC-3, read-out: LC50 (the source's name)", "result": "> 100", "unit": "µM"},
      {"measurement": "TGI", "setting": "PC-3; five-dose, PC-3", "result": 100.0, "unit": "µM"},
      {"measurement": "activity at 10 µM", "setting": "SK-MEL-2; Homo sapiens, 10 μM, SK-MEL-2, Melanoma, read-out: Growth percentage", "result": -15.4, "unit": "%"},
      {"measurement": "GI50", "setting": "SK-MEL-2; [3]", "result": "> 100", "unit": "µM"},
      {"measurement": "IC50", "setting": "SK-MEL-2; [3]", "result": "> 100", "unit": "µM"},
      {"measurement": "CC50", "setting": "SK-MEL-2; Homo sapiens, five-dose, SK-MEL-2, read-out: LC50 (the source's name)", "result": "> 100", "unit": "µM"},
      {"measurement": "TGI", "setting": "SK-MEL-2; five-dose, SK-MEL-2", "result": 100.0, "unit": "µM"},
      {"measurement": "activity at 10 µM", "setting": "HCT-15; Homo sapiens, 10 μM, HCT-15, Colon Cancer, read-out: Growth percentage", "result": -41.7, "unit": "%"},
      {"measurement": "GI50", "setting": "HCT-15; [4]", "result": 33.9, "unit": "µM"},
      {"measurement": "IC50", "setting": "HCT-15; [4]", "result": 53.7, "unit": "µM"},
      {"measurement": "LC50 (50% lethal concentration)", "setting": "HCT-15; [4]", "result": "> 100", "unit": "µM"},
      {"measurement": "TGI", "setting": "HCT-15; five-dose, HCT-15", "result": 100.0, "unit": "µM"},
      {"measurement": "activity at 10 µM", "setting": "OVCAR-8; Homo sapiens, 10 μM, OVCAR-8, Ovarian Cancer, read-out: Growth percentage", "result": 35.2, "unit": "%"},
      {"measurement": "GI50", "setting": "OVCAR-8; [5]", "result": "> 100", "unit": "µM"},
      {"measurement": "IC50", "setting": "OVCAR-8; [5]", "result": "> 100", "unit": "µM"},
      {"measurement": "CC50", "setting": "OVCAR-8; Homo sapiens, five-dose, OVCAR-8, read-out: LC50 (the source's name)", "result": "> 100", "unit": "µM"},
      {"measurement": "TGI", "setting": "OVCAR-8; five-dose, OVCAR-8", "result": 100.0, "unit": "µM"},
      {"measurement": "activity at 10 µM", "setting": "NCI-H522; Homo sapiens, 10 μM, NCI-H522, Non-Small-Cell Lung Cancer, read-out: Growth percentage", "result": 88.2, "unit": "%"},
      {"measurement": "GI50", "setting": "NCI-H522; [6]", "result": "> 100", "unit": "µM"},
      {"measurement": "IC50", "setting": "NCI-H522; [6]", "result": "> 100", "unit": "µM"},
      {"measurement": "LC50 (concentration killing 50% of cells)", "setting": "NCI-H522; [6]", "result": "> 100", "unit": "µM"},
      {"measurement": "TGI", "setting": "NCI-H522; five-dose, NCI-H522", "result": 100.0, "unit": "µM"},
      {"measurement": "activity at 10 µM", "setting": "HS 578T; Homo sapiens, 10 μM, Breast Cancer, read-out: Growth percentage", "result": 36.2, "unit": "%"},
      {"measurement": "GI50", "setting": "HS 578T; Homo sapiens, five-dose", "result": "> 100", "unit": "µM"},
      {"measurement": "IC50", "setting": "HS 578T; Homo sapiens, five-dose", "result": "> 100", "unit": "µM"},
      {"measurement": "CC50", "setting": "HS 578T; [1]", "result": "> 100", "unit": "µM"},
      {"measurement": "TGI", "setting": "HS 578T; five-dose", "result": 28.2, "unit": "µM"},
      {"measurement": "activity at 10 µM", "setting": "SNB-19; Homo sapiens, 10 μM, SNB-19, CNS Cancer, read-out: Growth percentage", "result": 12.2, "unit": "%"},
      {"measurement": "GI50", "setting": "SNB-19; [7]", "result": 6.9, "unit": "µM"},
      {"measurement": "IC50", "setting": "SNB-19; [7]", "result": 28.2, "unit": "µM"},
      {"measurement": "CC50", "setting": "SNB-19; Homo sapiens, five-dose, SNB-19, read-out: LC50 (the source's name)", "result": "> 100", "unit": "µM"},
      {"measurement": "TGI", "setting": "SNB-19; five-dose, SNB-19", "result": 100.0, "unit": "µM"},
      {"measurement": "activity at 10 µM", "setting": "K-562; Homo sapiens, K562, 10 μM, K-562, Leukemia, read-out: Growth percentage", "result": 56.1, "unit": "%"},
      {"measurement": "GI50", "setting": "K-562; [8]", "result": 1.58, "unit": "µM"},
      {"measurement": "IC50", "setting": "K-562; [8]", "result": 2.4, "unit": "µM"},
      {"measurement": "CC50", "setting": "K-562; Homo sapiens, K562, five-dose, K-562, read-out: LC50 (the source's name)", "result": 9.12, "unit": "µM"},
      {"measurement": "TGI", "setting": "K-562; five-dose, K-562", "result": 8.7, "unit": "µM"},
      {"measurement": "activity at 10 µM", "setting": "CCRF-CEM; Homo sapiens, 10 μM, Leukemia, read-out: Growth percentage", "result": 17.1, "unit": "%"},
      {"measurement": "GI50", "setting": "CCRF-CEM; Homo sapiens, five-dose", "result": 2.88, "unit": "µM"},
      {"measurement": "IC50", "setting": "CCRF-CEM; Homo sapiens, five-dose", "result": 4.37, "unit": "µM"},
      {"measurement": "CC50", "setting": "CCRF-CEM; [1]", "result": "> 100", "unit": "µM"},
      {"measurement": "TGI", "setting": "CCRF-CEM; five-dose", "result": 4.3, "unit": "µM"},
      {"measurement": "Growth percentage", "setting": "MALME-3M; 10 μM, Melanoma", "result": 106.8, "unit": "%"},
      {"measurement": "GI50", "setting": "MALME-3M; Homo sapiens, five-dose", "result": "> 100", "unit": "µM"},
      {"measurement": "IC50", "setting": "MALME-3M; Homo sapiens, five-dose", "result": "> 100", "unit": "µM"},
      {"measurement": "CC50", "setting": "MALME-3M; [1]", "result": "> 100", "unit": "µM"},
      {"measurement": "TGI", "setting": "MALME-3M; five-dose", "result": 100.0, "unit": "µM"}
    ]}
  ]
}
